We go through 20 molecules from patent US10344019B2 (priority 2010, dated 2019).

Read-outs that look alike come from different tables or passages of the source. A value given as a limit tells only on which side of the number the result lay.

Common to all, as to test: microbe, parasite or virus in culture
Holding throughout (type): cell-based

In assay [1] the test system is HCV 2a JFH-1 Rluc cells (dicistronic genotype 2a JFH-1 replicon, RLuc reporter). The settings on record: Hepatitis C virus, genotype 2a JFH-1 replicon, read-out: 2a JFH. In outline: (§1)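 Replicon cells stably carrying the listed RLuc-encoding dicistronic replicons were seeded and treated with DMSO serial dilutions of compound (10 mM stocks) diluted into culture medium. After 72 h, cells were lysed and Renilla luciferase activity measured. EC50 was derived by non-linear regression.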
(In general: In antiviral work, replicon cells carry a viral genome segment that copies itself.)

Assay [2] concerns HCV 1b RLuc cells (dicistronic genotype 1b Con1 replicon, RLuc reporter). The settings on record: Hepatitis C virus, read-out: 1b (nM). In outline: as §1
Assay [3] concerns HCV 3a RLuc cells (NS5A chimeric genotype 1b Con1 replicon with consensus genotype 3a NS5A gene). As to conditions: Hepatitis C virus. Summed up: as §1
Assay [4] concerns HCV 1a RLuc cells (dicistronic genotype 1a H77 replicon, RLuc reporter). As to conditions: Hepatitis C virus, read-out: 1a. In outline: as §1
For assay [5], the system named is HCV 4a Rluc cells (NS5A chimeric genotype 1b Con1 replicon with genotype 4a NS5A gene). The settings on record: Hepatitis C virus, read-out: 4a. Summed up: as §1
The mark [6] stands for this setting: read-out: 3a, genotype 3a replicon.
[7] abbreviates: read-out: 3a, Table 2, genotype 3a NS5A chimeric replicon.
The mark [8] stands for this setting: 72 h, Table 2, genotype 1a H77 replicon, 72 hours.
Setting [9] is: read-out: 3a, genotype 3a NS5A chimeric 1b Con1 replicon.
Where [10] appears, read: genotype 1a H77 replicon, RLuc reporter.

As to `COC(=O)N[C@H](C(=O)N1CCC[C@H]1c1ncc(-c2ccc3c(c2)OCc2c-3ccc(-c3cnc([C@@H]4CCCN4C(=O)[C@@H](NC(=O)OC)C(C)C)[nH]3)c2F)[nH]1)C(C)C` [Example 331], the EC50 is 1 to 999 pM in assay [1]; 0.006 nM in assay [2]; 1 to 990 pM in assay [3] (setting [6]); 1 to 999 pM in assay [4] (genotype 1a replicon); 1 to 990 pM in assay [5].

For the molecule `COC(=O)NC(C(=O)N1[C@@H]2CC[C@@H](C2)[C@H]1c1ncc(-c2ccc(-c3ccc4c(ccc5nc([C@@H]6C[C@H]7C[C@H]7N6C(=O)[C@@H](NC(=O)OC)C(C)C)[nH]c54)c3)cc2F)[nH]1)[C@@H](C)OC` (stereo partly shown) [Example 321], the EC50 in assay [1] was 1 to 999 pM; in assay [2] it was 0.006 nM; in assay [3] (setting [6]), 1 to 990 pM; in assay [4] (genotype 1a replicon) it was 1 to 999 pM; in assay [5] it was 1 to 990 pM.

In the case of `COC(=O)NC(C(=O)N1CCC[C@H]1c1nc2ccc3cc(-c4ccc5cc(-c6cnc([C@@H]7[C@H]8CC[C@H](C8)N7C(=O)[C@H](NC(=O)OC)c7ccccc7)[nH]6)ccc5c4)ccc3c2[nH]1)[C@@H](C)OC` (stereo partly shown) [Example 70], the EC50 is 1000 to 44000 pM in assay [1] (72 h, Table 2, 72 hours); 0.008 nM in assay [2] (72 h); 1000 to 4990 pM in assay [3] (setting [7]); 1 to 999 pM in assay [4] (setting [8]); 1 to 990 pM in assay [5].

With `COC(=O)NC(C(=O)N1CCC[C@H]1c1ncc(-c2ccc3c(c2)OCc2cc(-c4ccc5nc([C@@H]6[C@H]7CC[C@H](C7)N6C(=O)[C@H](NC(=O)OC)c6ccccc6)[nH]c5c4)ccc2-3)[nH]1)[C@@H](C)OC` (stereo in doubt) [Example 294], the EC50 is 1 to 999 pM in assay [1]; 0.01 nM in assay [2]; 1 to 990 pM in assay [3] (setting [6]); 1 to 999 pM in assay [4] (genotype 1a replicon); 1 to 990 pM in assay [5].

Consider `COC(=O)N[C@H](C(=O)N1CCC[C@H]1c1ncc(-c2cc3c4c(c2)OCc2cc(-c5cnc([C@@H]6CCCN6C(=O)C(c6ccccc6)N(C)C)[nH]5)cc(c2-4)OC3)[nH]1)C(C)C` (stereo partly shown) [Example 307], for which the EC50 in assay [1] is 1 to 999 pM; in assay [2], 0.091 nM; in assay [3] (setting [6]) it was 1 to 990 pM; in assay [4] (genotype 1a replicon) it was 1 to 999 pM; in assay [5], 1 to 990 pM.

`COC(=O)NC(C(=O)N1CCC[C@H]1c1ncc(-c2ccc3c(c2)C(F)(F)c2cc(-c4ccc5nc([C@@H]6CCCN6C(=O)[C@@H](NC(=O)OC)[C@@H](C)OC)[nH]c5c4)ccc2-3)[nH]1)C(C)C` (stereo partly shown) [Example 264]: the EC50 is 1000 to 44000 pM in assay [1] (RLuc reporter); 0.006 nM in assay [2]; 1000 to 4990 pM in assay [3] (setting [9]); 1 to 999 pM in assay [4] (setting [10]); 1 to 990 pM in assay [5].

Take `COC(=O)N[C@H](C(=O)N1CCC[C@H]1c1nc2ccc3cc(-c4ccc(-c5[nH]c([C@@H]6C[C@H]7C[C@H]7N6C(=O)[C@@H](NC(=O)OC)C(C)C)nc5Cl)cc4)ccc3c2[nH]1)C(C)C` [Example 383]: the EC50 in assay [1] is 1 to 999 pM; in assay [2] it was 0.008 nM; in assay [3] (setting [6]), 1 to 990 pM; in assay [4] (genotype 1a replicon), 1 to 999 pM; in assay [5], 1 to 990 pM.

Turning to `COC(=O)N[C@H](C(=O)N1CCC[C@H]1c1nc2ccc3cc(C#Cc4ccc(-c5cnc([C@@H]6CCCN6C(=O)[C@H](NC(=O)OC)c6ccccc6)[nH]5)cc4)ccc3c2[nH]1)C(C)C` [Example 238], the EC50 in assay [1] (RLuc reporter) is 1 to 999 pM; in assay [2], 0.005 nM; in assay [3] (setting [9]), 1 to 990 pM; in assay [4] (setting [10]), 1 to 999 pM; in assay [5], 1 to 990 pM.

For `COC(=O)N[C@H](C(=O)N1CCC[C@H]1c1ncc(-c2ccc3cc(-c4ccc(-c5cnc([C@@H]6CC7(CN6C(=O)[C@H](NC(=O)OC)c6ccccc6)OCCO7)[nH]5)cc4)ccc3c2)[nH]1)C(C)C` [Example 45], the EC50 in assay [1] (72 h, Table 2, 72 hours) was 1 to 999 pM; in assay [2] (72 h) it was 0.014 nM; in assay [3] (setting [7]), 1000 to 4990 pM; in assay [4] (setting [8]), 1 to 999 pM; in assay [5], 1 to 990 pM.

`COC(=O)N[C@@H](C(=O)N1CCC[C@H]1c1ncc(-c2ccc3cc(-c4ccc5c(c4)CCc4nc([C@@H]6CCCN6C(=O)[C@@H](NC(O)OC)C6CCN(S(C)(=O)=O)CC6)[nH]c4-5)ccc3c2)[nH]1)c1ccccc1` (stereo partly shown) [Example 281]: the EC50 in assay [1] (RLuc reporter) is 1 to 999 pM; in assay [2] it was 0.063 nM; in assay [3] (setting [9]), 1 to 990 pM; in assay [4] (setting [10]), 1 to 999 pM; in assay [5] it was 1 to 990 pM.

For the molecule `COC(=O)NC(C(=O)N1CCC[C@H]1c1ncc(-c2ccc3cc(-c4ccc5c(c4)CCc4nc([C@@H]6CCCN6C(=O)[C@@H](NC(=O)OC)C(C)C)[nH]c4-5)ccc3c2)[nH]1)c1cnccn1` (stereo partly shown) [Example 231], the EC50 in assay [1] (RLuc reporter) is 1000 to 44000 pM; in assay [2] it was 0.019 nM; in assay [3] (setting [9]), 1000 to 4990 pM; in assay [4] (setting [10]) it was 1 to 999 pM; in assay [5], 1 to 990 pM.

In the case of `COC(=O)N[C@H](C(=O)N1[C@@H]2C[C@@H]2C[C@H]1c1nc2ccc3cc(-c4ccc(-c5cnc([C@@H]6[C@H]7CC[C@H](C7)N6C(=O)[C@@H](NC(=O)OC)C6CCOCC6)[nH]5)c(F)c4)ccc3c2[nH]1)C(C)C` [Example 320], the EC50 in assay [1] is 1 to 999 pM; in assay [2], 0.01 nM; in assay [3] (setting [6]), 1 to 990 pM; in assay [4] (genotype 1a replicon), 1 to 999 pM; in assay [5] it was 1 to 990 pM.

As for `COC(=O)N[C@H](C(=O)N1CCC[C@H]1c1nc2c([nH]1)-c1ccc(-c3ccc4cc(-c5cnc([C@@H]6CCCN6C(=O)[C@H](NC(=O)C6CCOCC6)c6ccccc6)[nH]5)ccc4c3)cc1CC2)C(C)C` [Example 246], the EC50 is 1 to 999 pM in assay [1] (RLuc reporter); 0.045 nM in assay [2]; 1 to 990 pM in assay [3] (setting [9]); 1 to 999 pM in assay [4] (setting [10]); 1 to 990 pM in assay [5].

With `COC(=O)N[C@H](C(=O)N1CC2(CC2)C[C@H]1c1ncc(-c2ccc3c(c2)C(F)(F)c2cc(-c4ccc5nc([C@@H]6[C@H]7CC[C@H](C7)N6C(=O)[C@H](c6ccccc6)N6CCOCC6)[nH]c5c4)ccc2-3)[nH]1)C(C)C` [Example 97], the EC50 in assay [1] (72 h, Table 2, 72 hours) was 1000 to 44000 pM; in assay [2] (72 h), 0.009 nM; in assay [3] (setting [7]), over 5000 pM; in assay [4] (setting [8]), 1000 to 44000 pM; in assay [5], 1 to 990 pM.

Consider `CC#Cc1cc(-c2cnc([C@@H]3[C@H]4CC[C@H](C4)N3C(=O)[C@@H](NC(=O)OC)C(C)C)[nH]2)ccc1-c1ccc(-c2cnc([C@@H]3CCCN3C(=O)[C@@H](NC(=O)OC)C(C)C)[nH]2)cc1` [Example 329], for which the EC50 was 1 to 999 pM in assay [1]; 0.008 nM in assay [2]; 1000 to 4990 pM in assay [3] (setting [6]); 1 to 999 pM in assay [4] (genotype 1a replicon); 1 to 990 pM in assay [5].

Regarding `COC(=O)N[C@H](C(=O)N1CCC[C@H]1c1ncc(-c2ccc3c(c2)CCc2cc(-c4cnc([C@@H]5[C@H]6CC[C@H](C6)N5C(=O)[C@@H](NC(=O)OC)[C@@H](C)OC)[nH]4)ccc2-3)[nH]1)[C@@H](C)OC` [Example 73], the EC50 in assay [1] (72 h, Table 2, 72 hours) is 1 to 999 pM; in assay [2] (72 h) it was 0.038 nM; in assay [3] (setting [7]), 1000 to 4990 pM; in assay [4] (setting [8]), 1 to 999 pM; in assay [5], 1 to 990 pM.

For the molecule `COC(=O)N[C@H](C(=O)N1CCC[C@H]1c1nc2ccc3cc(-c4ccc(-c5cnc([C@@H]6[C@H]7CC[C@H](C7)N6C(=O)[C@@H](NC(=O)OC)[C@@H](C)OC)[nH]5)c(F)c4)ccc3c2[nH]1)C(C)C` [Example 100], the EC50 in assay [1] (72 h, Table 2, 72 hours) is 1 to 999 pM; in assay [2] (72 h), 0.004 nM; in assay [3] (setting [7]), 1 to 990 pM; in assay [4] (setting [8]), 1 to 999 pM; in assay [5], 1 to 990 pM.

For `COC(=O)N[C@H](C(=O)N1CC(F)(F)C[C@H]1c1ncc(-c2ccc(-c3ccc4cc(-c5cnc([C@@H]6CCCN6C(=O)[C@H](NC(=O)OC)c6ccccc6)[nH]5)ccc4c3)cc2)[nH]1)C(C)C` [Example 232], the EC50 was 1 to 999 pM in assay [1] (RLuc reporter); 0.004 nM in assay [2]; 1 to 990 pM in assay [3] (setting [9]); 1 to 999 pM in assay [4] (setting [10]); 1 to 990 pM in assay [5].

Turning to `COC(=O)N[C@H](C(=O)N1CCC[C@H]1c1ncc(-c2ccc3cc(-c4ccc(-c5cnc([C@@H]6CCCN6C(=O)[C@@H](N)C6CCSCC6)[nH]5)cc4)ccc3c2)[nH]1)C(C)C` [Example 277], the EC50 in assay [1] (RLuc reporter) is over 44000 pM; in assay [2], 1.06 nM; in assay [3] (setting [9]), over 5000 pM; in assay [4] (setting [10]) it was 1000 to 44000 pM; in assay [5], 1000 to 4990 pM.

On to `COC(=O)N[C@H](C(=O)N1CCC[C@H]1c1nc2ccc3cc(-c4ccc5c(ccc6nc([C@@H]7[C@H]8CC[C@H](C8)N7C(=O)[C@@H](NC(=O)OC)[C@@H](C)OC)[nH]c65)c4)ccc3c2[nH]1)C(C)C` [Example 64], for which the EC50 in assay [1] (72 h, Table 2, 72 hours) is 1 to 999 pM; in assay [2] (72 h), 0.018 nM; in assay [3] (setting [7]), 1 to 990 pM; in assay [4] (setting [8]), 1 to 999 pM; in assay [5], 1 to 990 pM.
